In patent publication EP4610269A1, “UROKINASE PLASMINOGEN ACTIVATOR SURFACE RECEPTOR (UPAR) LIGANDS FOR DIAGNOSTIC OR THERAPEUTIC USE” (3B Pharmaceuticals GmbH, priority 2024, dated 2025):
pIC50: −log10 of the molar value. Where a SMILES comes first, the peptide text is derived from it. Bridges are numbered along the chain shown (N, C = ends). [ ]: non-standard residue; d: D form. The star is where a group is joined. CH3O(CH2CH2O)11CH2CH2CO = COCCOCCOCCOCCOCCOCCOCCOCCOCCOCCOCCOCCC(=O)*; DOTA = O=C(O)CN1CCN(CC(=O)O)CCN(CC(=O)*)CCN(CC(=O)O)CC1; Oic = O=C(O)[C@@H]1C[C@@H]2CCCC[C@@H]2N1; Phe(4-CN) = N#Cc1ccc(C[C@H](N)C(=O)O)cc1; Pro(cis-4-F) = O=C(O)[C@@H]1C[C@H](F)CN1; Phe(2-Cl) = N[C@@H](Cc1ccccc1Cl)C(=O)O; cisHyp = O=C(O)[C@@H]1C[C@H](O)CN1; Ala(cPr) = N[C@@H](CC1CC1)C(=O)O; Hyp = O=C(O)[C@@H]1C[C@@H](O)CN1; 3Pal = N[C@@H](Cc1cccnc1)C(=O)O; Pentanoyl(4-Me) = CC(C)CCC(=O)*; Cit = NC(=O)NCCC[C@H](N)C(=O)O; Butoxycarbonyl = CCCCOC(=O)*; Orn = NCCC[C@H](N)C(=O)O; dNMeA = CN[C@H](C)C(=O)O; Dab = NCC[C@H](N)C(=O)O; Nva = CCC[C@H](N)C(=O)O; Pentanoyl = CCCCC(=O)*; Ava = NCCCCC(=O)O

Assays:
[1] = molecular target: T1, human uPAR (uPAR-Fc) (Homo sapiens, UniProt Q03405); experiment: Surface plasmon resonance (SPR) assay, single cycle kinetics; assay type: binding; conditions: pKD category for uPAR SPR activity assay; uPAR-Fc on Protein A-Chip, single cycle kinetics, 25°C; read-out: pKD CAT (converted)
T1 construct: comprising amino acids Leu23-Arg303 according to UniProt entry Q03405.1; purchased R&D Systems 10378-UK-100
T1 sequence (Q03405 23-303): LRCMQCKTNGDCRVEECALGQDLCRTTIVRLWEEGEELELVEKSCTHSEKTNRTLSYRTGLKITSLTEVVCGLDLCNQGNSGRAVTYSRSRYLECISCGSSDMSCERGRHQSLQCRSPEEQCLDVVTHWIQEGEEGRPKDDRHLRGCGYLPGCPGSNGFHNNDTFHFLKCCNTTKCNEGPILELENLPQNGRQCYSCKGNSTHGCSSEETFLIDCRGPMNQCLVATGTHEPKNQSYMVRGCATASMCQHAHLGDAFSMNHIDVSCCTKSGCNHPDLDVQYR
How it was run: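 uPAR-Fc (Leu23-Arg303 extracellular domains, human IgG1 Fc) captured on Protein A chip to ~2000 RU; single-cycle kinetics at 25°C in HEPES running buffer pH 7.4 with 0.1% DMSO. KD from double-referenced sensorgrams fitted to 1:1 Langmuir model, reported as pKD.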

[2] = molecular target: T2, uPAR-expressing HEC-265 human endometrial adenocarcinoma cells (Homo sapiens, UniProt Q03405); experiment: Competitive FACS binding assay; conditions: pIC50 category of FACS binding
T2 construct: Cell surface uPAR-expressing HEC-265 human endometrial adenocarcinoma cells; host or cells: HEC-265
T2 sequence (Q03405 23-335): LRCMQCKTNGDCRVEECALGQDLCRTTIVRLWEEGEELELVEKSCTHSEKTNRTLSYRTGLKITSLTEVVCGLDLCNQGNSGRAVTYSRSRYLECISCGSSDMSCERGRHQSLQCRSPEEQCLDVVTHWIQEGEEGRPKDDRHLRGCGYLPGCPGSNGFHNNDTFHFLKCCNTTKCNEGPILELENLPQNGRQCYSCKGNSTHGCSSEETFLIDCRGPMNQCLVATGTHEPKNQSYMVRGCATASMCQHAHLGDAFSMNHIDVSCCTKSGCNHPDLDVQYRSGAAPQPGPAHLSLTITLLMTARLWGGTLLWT
How it was run: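 HEC-265 cells incubated 1 h at 4 °C with 10 nM biotinylated uPAR peptide tracer plus increasing test compound, then stained with APC-streptavidin on ice. Median APC fluorescence by flow cytometry; 4PL fit gives pIC50.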

SMILES | Kd [1] | pIC50 [2]
CCCCOC(=O)N[C@H]1CSSC[C@@H](C(N)=O)NC(=O)[C@H](CCC)NC(=O)[C@H]([C@@H](C)CC)NC(=O)[C@@H]2C[C@@H](O)CN2C(=O)[C@@H]2C[C@H](F)CN2C(=O)[C@H](Cc2ccc(C#N)cc2)NC(=O)[C@H](Cc2ccc(O)cc2)NC(=O)[C@H](CCCCNC(=O)CN2CCN(CC(=O)O)CCN(CC(=O)O)CCN(CC(=O)O)CC2)NC(=O)[C@H]([C@@H](C)O)NC1=O [UPAR-378, Butoc-[Cys-Thr-Lys(DOTA)-Tyr-Pnf-4Cfp-Hyp-Ile-Nva-Cys]-NH2] (Butoxycarbonyl-CTK(DOTA)Y[Phe(4-CN)][Pro(cis-4-F)][Hyp]I[Nva]C-NH2; disulfide 1-10) | < 1.58 nM | ≥ 8.00
CCCCC(=O)N[C@H]1CSSC[C@@H](C(N)=O)NC(=O)[C@H](CC2CC2)NC(=O)[C@H]([C@@H](C)CC)NC(=O)[C@@H]2C[C@@H](O)CN2C(=O)[C@@H]2CCCN2C(=O)[C@H](Cc2ccccc2)NC(=O)[C@H](Cc2ccc(O)cc2)NC(=O)[C@H](CCC(N)=O)NC(=O)[C@H](CCCNC(=N)N)NC1=O [UPAR-379, Pent-[Cys-Arg-Gln-Tyr-Phe-Pro-Hyp-Ile-Cpra-Cys]-NHz] (Pentanoyl-CRQYFP[Hyp]I[Ala(cPr)]C-NH2; disulfide 1-10) | < 1.58 nM | ≥ 8.00
CCCCC(=O)N[C@H]1CSSC[C@@H](C(N)=O)NC(=O)[C@H](COC)NC(=O)[C@H]([C@@H](C)CC)NC(=O)[C@@H]2C[C@@H](O)CN2C(=O)[C@@H]2CCCN2C(=O)[C@H](Cc2ccccc2)NC(=O)[C@H](Cc2ccc(O)cc2)NC(=O)[C@H](CCCCNC(=O)CN2CCN(CC(=O)O)CCN(CC(=O)O)CCN(CC(=O)O)CC2)NC(=O)[C@H](CCCNC(N)=O)NC1=O [UPAR-380, Pent-[Cys-Cit-Lys(DOTA)-Tyr-Phe-Pro-Hyp-Ile-Ser(Me)-Cys]-NH2] (Pentanoyl-C[Cit]K(DOTA)YFP[Hyp]IS(Me)C-NH2; disulfide 1-10) | 1.58 to 10 nM | ≥ 8.00
CC[C@H](C)[C@@H]1NC(=O)[C@H](C)NC(=O)[C@@H]2CCCN2C(=O)[C@H](Cc2ccccc2)NC(=O)[C@H](Cc2ccc(O)cc2)NC(=O)[C@H](CCC(N)=O)NC(=O)[C@H](CCCNC(=N)N)NC(=O)[C@@H](NC(=O)[C@H](CC(C)C)NC(C)=O)CSSC[C@@H](C(N)=O)NC(=O)[C@H](CC(C)C)NC1=O [UPAR-381, Ac-Leu-[Cys-Arg-Gln-Tyr-Phe-Pro-Ala-Ile-Leu-Cys]-NH2] (Ac-LCRQYFPAILC-NH2; disulfide 2-11) | < 1.58 nM | ≥ 8.00
CCCCC(=O)N[C@H]1CSSC[C@@H](C(N)=O)NC(=O)[C@H](CCC)NC(=O)[C@H]([C@@H](C)CC)NC(=O)[C@@H]2C[C@@H](O)CN2C(=O)[C@@H]2CCCN2C(=O)[C@H](Cc2ccccc2)NC(=O)[C@H](Cc2ccc(O)cc2)NC(=O)[C@H](CCCCNC(=O)CN2CCN(CC(=O)O)CCN(CC(=O)O)CCN(CC(=O)O)CC2)NC(=O)[C@H](CCCNC(=O)CCOCCOCCOCCOCCOCCOCCOCCOCCOCCOCCOCCOC)NC1=O [UPAR-383, Pent-[Cys-Orn(mPEG12)-Lys(DOTA)-Tyr-Phe-Pro-Hyp-Ile-Nva-Cys]-NHz] (Pentanoyl-C[Orn](CH3O(CH2CH2O)11CH2CH2CO)K(DOTA)YFP[Hyp]I[Nva]C-NH2; disulfide 1-10) | < 1.58 nM | ≥ 8.00
CCCCC(=O)N[C@H]1CSSC[C@@H](C(N)=O)NC(=O)[C@H](CCC)NC(=O)[C@H]([C@@H](C)CC)NC(=O)[C@@H](C)N(C)C(=O)[C@@H]2CCCN2C(=O)[C@H](Cc2ccccc2)NC(=O)[C@H](Cc2ccc(O)cc2)NC(=O)[C@H](CCCCNC(=O)CN2CCN(CC(=O)O)CCN(CC(=O)O)CCN(CC(=O)O)CC2)NC(=O)[C@H](CCCNC(N)=O)NC1=O [UPAR-384, Pent-[Cys-Cit-Lys(DOTA)-Tyr-Phe-Pro-nma-Ile-Nva-Cys]-NH2] (Pentanoyl-C[Cit]K(DOTA)YFP[dNMeA]I[Nva]C-NH2; disulfide 1-10) | < 1.58 nM | ≥ 8.00
CCCCC(=O)N[C@H]1CSSC[C@@H](C(N)=O)NC(=O)[C@H](CCC)NC(=O)[C@H](CCCCN)NC(=O)[C@@H]2C[C@@H](O)CN2C(=O)[C@@H]2CCCN2C(=O)[C@H](Cc2ccccc2)NC(=O)[C@H](Cc2ccc(O)cc2)NC(=O)[C@H](CCC(N)=O)NC(=O)[C@H](CCCNC(=N)N)NC1=O [UPAR-385, Pent-[Cys-Arg-Gln-Tyr-Phe-Pro-Hyp-Lys-Nva-Cys]-NH2] (Pentanoyl-CRQYFP[Hyp]K[Nva]C-NH2; disulfide 1-10) | 10 to 100 nM | ≤ 6.90
CCCCC(=O)N[C@H]1CSSC[C@@H](C(N)=O)NC(=O)[C@H](CCC)NC(=O)[C@H]([C@@H](C)CC)NC(=O)[C@@H]2C[C@@H](O)CN2C(=O)[C@@H]2C[C@@H]3CCCC[C@@H]3N2C(=O)[C@H](Cc2ccccc2)NC(=O)[C@H](Cc2ccc(O)cc2)NC(=O)[C@H](CCC(N)=O)NC(=O)[C@H](CCCNC(=N)N)NC1=O [UPAR-387, Pent-[Cys-Arg-Gln-Tyr-Phe-Oic-Hyp-Ile-Nva-Cys]-NH2] (Pentanoyl-CRQYF[Oic][Hyp]I[Nva]C-NH2; disulfide 1-10) | < 1.58 nM | ≥ 8.00
CCCCC(=O)N[C@H]1CSSC[C@@H](C(N)=O)NC(=O)[C@H](CCC)NC(=O)[C@H]([C@@H](C)CC)NC(=O)[C@@H]2C[C@@H](O)CN2C(=O)[C@@H]2C[C@H](O)CN2C(=O)[C@H](Cc2ccccc2)NC(=O)[C@H](Cc2ccc(O)cc2)NC(=O)[C@H](CCCCNC(=O)CN2CCN(CC(=O)O)CCN(CC(=O)O)CCN(CC(=O)O)CC2)NC(=O)[C@H]([C@@H](C)O)NC1=O [UPAR-388, Pent-[Cys-Thr-Lys(DOTA)-Tyr-Phe-Chy-Hyp-Ile-Nva-Cys]-NH2] (Pentanoyl-CTK(DOTA)YF[cisHyp][Hyp]I[Nva]C-NH2; disulfide 1-10) | 1.58 to 10 nM | ≥ 8.00
CCCCC(=O)N[C@H]1CCNC(=O)CC[C@@H](C(N)=O)NC(=O)[C@H](CCC)NC(=O)[C@H]([C@@H](C)CC)NC(=O)[C@@H]2C[C@@H](O)CN2C(=O)[C@@H]2CCCN2C(=O)[C@H](Cc2ccccc2)NC(=O)[C@H](Cc2ccc(O)cc2)NC(=O)[C@H](CCC(N)=O)NC(=O)[C@H](CCCNC(=N)N)NC1=O [UPAR-390, Pent-[Dab-Arg-Gln-Tyr-Phe-Pro-Hyp-Ile-Nva-Glu]-NH2] (Pentanoyl-[Dab]RQYFP[Hyp]I[Nva]E-NH2; lactam 1-10) | > 100 nM | ≤ 6.90
CCCCC(=O)N[C@H]1CSSC[C@@H](C(N)=O)NC(=O)[C@H](CCC)NC(=O)[C@H]([C@@H](C)CC)NC(=O)[C@@H]2C[C@@H](O)CN2C(=O)[C@@H]2CCCN2C(=O)[C@H](Cc2ccccc2)NC(=O)[C@H](Cc2ccc(O)cc2)NC(=O)[C@H](CCC(N)=O)NC(=O)[C@H](CC(C)C)NC1=O [UPAR-391, Pent-[Cys-Leu-Gln-Tyr-Phe-Pro-Hyp-Ile-Nva-Cys]-NH2] (Pentanoyl-CLQYFP[Hyp]I[Nva]C-NH2; disulfide 1-10) | < 1.58 nM | ≥ 8.00
CC[C@H](C)[C@@H]1NC(=O)[C@@H](C)NC(=O)[C@@H]2CCCN2C(=O)[C@H](Cc2ccccc2)NC(=O)[C@H](Cc2ccc(O)cc2)NC(=O)[C@H](CCCCNC(=O)CN2CCN(CC(=O)O)CCN(CC(=O)O)CCN(CC(=O)O)CC2)NC(=O)[C@@H](CC(=O)O)NC(=O)[C@@H](NC(=O)[C@H](CC(C)C)NC(=O)[C@H](CC(=O)O)NC(C)=O)CSSC[C@@H](C(N)=O)NC(=O)[C@H](CC(C)C)NC1=O [UPAR-392, Ac-Asp-Leu-[Cys-asp-Lys(DOTA)-Tyr-Phe-Pro-ala-Ile-Leu-Cys]-NH2] (Ac-DLC[dD]K(DOTA)YFP[dA]ILC-NH2; disulfide 3-12) | > 100 nM | ≤ 6.90
CC[C@H](C)[C@@H]1NC(=O)[C@@H](C)NC(=O)[C@@H]2CCCN2C(=O)[C@H](Cc2ccccc2)NC(=O)[C@H](Cc2cccnc2)NC(=O)[C@H](CCC(N)=O)NC(=O)[C@H](CCCNC(N)=O)NC(=O)[C@@H](NC(=O)CCC(C)C)CSSC[C@@H](C(N)=O)NC(=O)[C@H](CC(C)C)NC1=O [UPAR-393, iHex-[Cys-Cit-Gln-Mpa-Phe-Pro-ala-Ile-Leu-Cys]-NH2] ({Pentanoyl(4-Me)}-C[Cit]Q[3Pal]FP[dA]ILC-NH2; disulfide 1-10) | < 1.58 nM | ≥ 8.00
CC[C@H](C)[C@@H]1NC(=O)[C@@H](C)NC(=O)[C@@H]2CCCN2C(=O)[C@H](Cc2ccccc2)NC(=O)[C@H](Cc2ccc(O)cc2)NC(=O)[C@H](CCC(N)=O)NC(=O)[C@H](CCCNC(N)=O)NC(=O)[C@@H](NC(=O)CCCCN)CSSC[C@@H](C(N)=O)NC(=O)[C@H](CC(C)C)NC1=O [UPAR-394, H-Ava-[Cys-Cit-Gln-Tyr-Phe-Pro-ala-Ile-Leu-Cys]-NH2] (H-[Ava]C[Cit]QYFP[dA]ILC-NH2; disulfide 2-11) | > 100 nM | ≤ 6.90
CCCCC(=O)N[C@H]1CSSC[C@@H](C(N)=O)NC(=O)[C@H](CCC)NC(=O)[C@H]([C@@H](C)CC)NC(=O)[C@@H]2C[C@@H](O)CN2C(=O)[C@@H]2CCCN2C(=O)[C@H](Cc2ccccc2)NC(=O)[C@H](Cc2ccccc2Cl)NC(=O)[C@H](CCC(N)=O)NC(=O)[C@H](CCCNC(=N)N)NC1=O [UPAR-395, Pent-[Cys-Arg-Gln-Ocf-Phe-Pro-Hyp-Ile-Nva-Cys]-NH2] (Pentanoyl-CRQ[Phe(2-Cl)]FP[Hyp]I[Nva]C-NH2; disulfide 1-10) | < 1.58 nM | ≥ 8.00
CCCCC(=O)N[C@H]1CSSC[C@@H](C(N)=O)NC(=O)[C@H](CC(C)C)NC(=O)[C@H]([C@@H](C)CC)NC(=O)[C@@H]2CCCN2C(=O)[C@@H]2CCCN2C(=O)[C@H](Cc2ccccc2)NC(=O)[C@H](Cc2ccc(O)cc2)NC(=O)[C@H](CCCCNC(=O)CN2CCN(CC(=O)O)CCN(CC(=O)O)CCN(CC(=O)O)CC2)NC(=O)[C@H](CCCNC(N)=O)NC1=O [UPAR-396, Pent-[Cys-Cit-Lys(DOTA)-Tyr-Phe-Pro-Pro-Ile-Leu-Cys]-NH2] (Pentanoyl-C[Cit]K(DOTA)YFPPILC-NH2; disulfide 1-10) | < 1.58 nM | ≥ 8.00
